Data: a melting point compilation (Tetko et al.; mined from patent text by program, amines drawn as free bases though some values may be those of a salt)

Row | SMILES | melting point [°C]
1 | CCOC(=O)CN(CC1Nc2cc(Cl)c(S(N)(=O)=O)cc2S(=O)(=O)N1)C(=O)C(C)CSC(C)=O (centres undefined) | 127 to 130
2 | CCOC(=O)c1ccc(NCCOc2ccc(Br)cc2)cc1 | 128 to 133
3 | COc1ccc(-c2cnc(C)[nH]c2=O)cc1OC | 187 to 188
4 | NC(CO)(CO)CCCCCCCCCCCCCc1ccccc1 | 61 to 64
5 | O=C(O)[C@H]1C=C[C@H](c2ccccc2)n2c(=O)n(CCS)c(=O)n21 (relative stereo) | 153 to 154
6 | CCOC(=O)CCNC(=O)Nc1ccccc1CCc1cc(C(C)(C)C)c(O)c(C(C)(C)C)c1 | 158 to 159
7 | CCN1c2ccc(Cl)cc2C=C(C(=O)O)C1C(F)(F)F (centres undefined) | 201 to 202
8 | Cc1cc(F)cc2c1-c1ccc(F)cc1C21NC(=O)NC1=O (centres undefined) | > 320
9 | CCOC(=O)C1=C(N)N=C(SC)C(C(=O)OCC)C1c1cccc([N+](=O)[O-])c1 (centres undefined) | 144
10 | CN1C(=O)C(C(=O)NCCCCCC(=O)O)S(=O)(=O)c2ccccc21 (centres undefined) | 132 to 134
11 | N#Cc1cccc2c1NC(=O)C2c1ncnc2c1cnn2C1CCCC1 (centres undefined) | 327 to 332
12 | CC(C)(C)Nc1ccncc1NC(=S)NC1CCCCC1 | 216 to 218
13 | COc1ccc(-c2ocnc2-c2cc(OC)c(OC)c(OC)c2)cc1F | 139 to 140
14 | Cc1ccc(C(=O)n2c3c(c4cc(F)ccc42)CC(C(=O)O)CC3)cc1 (centres undefined) | 229 to 231
15 | CC1(C)C=C(NC=NC#N)c2cc(C#N)ccc2O1 | 159 to 161
16 | CCOC(=O)c1sc(C(=O)OCC)c2c1OC=CCO2 | 198 to 200
17 | Cc1c(C(F)(C(F)(F)F)C(F)(F)F)c(-c2ccc(S(N)(=O)=O)cc2)c2n1CCC2 | 200
18 | NC(=O)c1c(C(=O)O)cnn1-c1ccc(Cl)c(Cl)c1 | 249 to 250
19 | COCCOc1ccc(NC=C(C#N)C(=O)Nc2cc(OC)c(Cl)cc2Cl)cc1I | 209 to 210
20 | O=C1C2=C(CCCC2)C(SSC2C3=C(CCCC3)C(=O)N2c2ccc(Cl)cc2F)N1c1ccc(Cl)cc1F (centres undefined) | 146 to 147

Row | SMILES | melting point [°C]
21 | CCCC(=O)C(=CNc1cscc1OC)C(=O)OCC | 89 to 91
22 | CCOC(=O)CNC(=O)Oc1c(C)n(CC)ccc1=O | 102 to 103
23 | Cc1ccc(SC2OC(COC(=O)c3ccccc3)C(O)C(OC(=O)c3ccccc3)C2OC(=O)c2ccccc2)cc1 (centres undefined) | 197
24 | Cn1c(=O)n(CCCC(NS(=O)(=O)c2ccc(-c3ccc(Cl)cc3)cc2)C(=O)NO)c(=O)c2ccccc21 (centres undefined) | 235
25 | O=C(O)CCCNc1ccc2c(NC(=O)CC3CCCCC3)c(Cl)ccc2n1 | 248 to 250
26 | CC(=O)OC(OC(C)=O)c1cc(Br)c(C(OC(C)=O)OC(C)=O)cc1Br | 200 to 210
27 | Nc1cc(F)cc2cc(C(=O)NCC(F)(F)C(F)(F)C(F)(F)F)cnc12 | 202 to 204
28 | COc1cc(C(=O)O)cc2c(C)c(C)oc12 | 229 to 231
29 | CCOC(=O)c1c(CN2CCCCC2)nc2cc(OCC)c(OCC)cc2c1-c1ccc(OC)c(OC)c1 | 154 to 155
30 | Nc1nc(=O)n(C(=O)c2cc(F)cc(F)c2)cc1F | 227 to 231
31 | COc1ccc(NC=O)cn1 | 81 to 83
32 | CCCCC[C@H]1CC[C@H](C=CCCc2ccc(O)cc2)CC1 | 89 to 90
33 | Cc1cc(C)cc(CC(=O)c2ccncc2)c1 | 96 to 97
34 | CN(C)c1ccn2nc(S(=O)(=O)Nc3c(Cl)cccc3Cl)nc2n1 | > 310
35 | O=C1CCC(c2ccc(Br)cc2)N1 (centres undefined) | 142
36 | CC(C)(C)N1CC(=O)Nc2ccc(Cl)cc2C1=O | 177 to 178
37 | CNS(=O)(=O)c1cccc(NC(=O)c2cnn3c(C(F)(F)F)cc(-c4ccc(C(F)(F)F)cc4)nc23)c1 | 232
38 | COc1ccc2c(Cc3ccc(OC4CCCCC4N(C)C)cc3)c(-c3ccc(OCCN4CCCC4)cc3)sc2c1 (centres undefined) | 58 to 61
39 | COc1ncccc1NC(=O)[C@H]1[C@H](c2ccc(S(N)(=O)=O)cc2)C1(C)C (relative stereo) | 216 to 218
40 | CC(C)C(=O)N1N=Cc2ccccc2C1C#N (centres undefined) | 144 to 146

Row | SMILES | melting point [°C]
41 | CCOC(=O)c1ncc2[nH]c3ccc(I)cc3c2c1C | 250 to 255
42 | Cc1ccc(OC(=O)N2CCC[C@H]2C(=O)O)cc1 | 76 to 77
43 | COCOc1c(Br)cccc1-c1ccc2c(c1)C(C)(C)CCC2(C)C | 74
44 | COc1ccc(CN2CC(CO)CC2=O)cc1OC (centres undefined) | 78 to 79
45 | COc1ccc(NC(=O)N(Cc2ccccn2)Cc2ccc(F)cc2F)c(NC(=O)c2cc(C(C)(C)C)c(O)c(C(C)(C)C)c2)c1 | 176 to 178
46 | Cc1cc2c(cc1C#N)C(c1ccccn1)=CC(C)(C)CO2 | 171
47 | Nc1ccc(Oc2cc(F)c(C(F)(F)F)c(Cl)c2)cc1 | 55 to 57
48 | CCCCOCCOc1ccc(-c2ccc3c(c2)C=C(C(=O)Nc2ccc(C(O)c4cc(C)ccn4)cc2)CCN3C(=O)C(F)(F)F)cc1 (centres undefined) | 101 to 105
49 | CN(c1cccc2cc(C3=NCC4(CCN(CC#N)CC4)S3)[nH]c12)S(=O)(=O)c1cccs1 | 211
50 | CS(=O)(=O)ON=C(C#N)C(N)=O | 136 to 142
51 | CCOC(=O)c1ccc2cc(I)ccc2n1 | 119 to 121
52 | CN1CC2(c3cccc(O)c3)CCCC1C2 (centres undefined) | 144 to 146
53 | COc1cc(C(C)C)c2c(c1)S(=O)(=O)N(COc1cc(C(F)(F)F)nn1C)C2=O | 107 to 108
54 | CC(=O)Nc1ccc(C(=O)O)c(OC(C)=O)c1 | 191 to 193
55 | COC(C(=O)O)c1c(Cl)cccc1Cl (centres undefined) | 95 to 96
56 | CCOC(=O)c1nc2cc(Br)c(Cl)cc2[nH]c1=O | 203 to 205
57 | CCc1nc2c(c(C)c(C)n3nnnc23)n1CCOCCNS(C)(=O)=O | 216 to 218
58 | O=C1CCc2ccc3ncoc3c21 | 188 to 190

The remaining lines, values ahead:

Row | melting point [°C] | SMILES
59 | 90 | N#CN=C(NCc1ccccn1)Nc1cccc(-c2cccc(S(=O)(=O)NC(CC(=O)O)c3ccccc3)c2)c1 (centres undefined)
60 | 97 to 100 | COC(=S)C(C)Cc1ccc(OCc2nc3ccc(SC)cc3n2C)cc1 (centres undefined)
61 | 188 | COc1cc(C)c2c(c1)c1c(n2Cc2ccc(Cl)cc2)C(CC(=O)O)CCC1 (centres undefined)
62 | 202 | CC1C(=O)N(c2ccc(S(N)(=O)=O)cc2Cl)CN1c1ccccc1 (centres undefined)
63 | 215 to 216 | COc1ccnc(CCc2nc3cc(-c4ccc(S(=O)(=O)Nc5ccccc5OC)cc4)cnc3[nH]2)c1
64 | 123 to 126 | Cc1nc(-n2cc(-c3ccsc3)nn2)sc1C(=O)NCc1ccccc1
65 | 234 to 236 | O=c1oc2ccccc2n2cnc(-c3noc(C4CC4)n3)c12
66 | 134 to 136 | CCN1C(=O)Cc2cc(C(=O)c3ccccc3)ccc21
67 | 180 to 182 | Cc1cccc(C(=O)n2c3c(c4ccccc42)CC(C(=O)O)CC3)c1 (centres undefined)
68 | 179 to 180 | CCc1cc2ccccn2c1C(=O)c1ccc(O)cc1
69 | 156 to 158 | CC1(C)Oc2ccc(C#N)cc2[C@@H](NC(=O)C2=C(c3ccccc3)CCC2)[C@@H]1O
70 | 156 to 158 | Cc1cccc(N2CCN(Cc3c[nH]c4ncccc34)CC2)c1
71 | 67 to 68 | CCOC(=O)C(O)CCc1ccc(OCCc2nc(-c3ccccc3)oc2C)cc1 (centres undefined)
72 | 119 to 120 | CCOC(=O)c1sc(Cl)nc1-c1ccc(Cl)cc1
73 | 183 to 184 | CC(C)(C)C(=O)Nc1ccccc1CC(O)c1ccccc1 (centres undefined)
74 | 143 to 144 | N#CCCNC(=O)c1cccc(-c2cccc(Oc3ccc(Cl)cc3)n2)c1
75 | 84 to 86 | O=Cc1c(-c2ccccc2F)ccc2c1OCO2
76 | 117 to 118 | ClCc1ccc(OCc2csc(-c3ccccc3)n2)nc1
77 | 142 to 143 | O=C(OCc1cccnc1)c1ccc(F)cc1
78 | 155 to 156 | CS(=O)(=O)c1ccc(-c2cc(CCCC(=O)O)nn2-c2ccc(C(F)(F)F)cc2)cc1
79 | 244 to 245 | O=C1N=c2cccc(OCCN3CCC(Cc4ccccc4)CC3)c2=NC1=O

Row | melting point [°C] | SMILES
80 | 192 to 196 | CN(C(=S)n1cc(F)c(N)nc1=O)c1ccccc1
81 | 139 to 141 | CS(=O)(=O)N(Cc1ccc(C(F)(F)F)cc1)CC(O)(Cn1cncn1)c1ccc(Cl)cc1Cl (centres undefined)
82 | 53.5 to 54 | COC(=O)CCCCc1ccc(C(=O)Cc2ccccc2)cc1
83 | 119 to 120 | COCCOC(=O)Nc1cccc(C)c1COc1cccn2c(C=O)c(C)nc12
84 | 192 | O=C(O)CNC(=O)Nc1ccc(CC(=O)OCc2ccccc2)cc1
85 | 202 to 204 | CS(=O)(=O)Cc1cnc2ccccc2c1Cl
86 | 163 to 164 | CCN(CC)CC1CCCCN1CC(=O)N1c2ccccc2NC(=O)c2cscc21 (centres undefined)
87 | 80 | NCC1CCN(C(c2ccccc2)c2ccccc2)CC1
88 | 132 to 145 | COc1ccccc1NC(=O)Nc1nc(Nc2ccccc2-c2ccccc2)nc(N(CC(=O)O)Cc2ccc(C)cc2)n1
89 | 91 to 94 | CC(c1oc2ccccc2c(=O)c1-c1cccc(F)c1)n1nc(-c2ccc(N)cc2)c2c(N)ncnc21 (centres undefined)
90 | 130 to 133 | O[C@H](CCc1cccnc1)COc1ccc(-c2nnco2)cc1
91 | 120 | Cc1ccc(-c2nccc3c(CCl)cccc23)cc1
92 | 156 to 160 | COC(=O)N1Cc2c(-c3ccc(F)cc3)ncn2-c2ccccc21
93 | 70 to 72 | O=C(Nc1cc(O)c(Cl)cc1F)OCc1ccccc1
94 | 248 to 250 | COC(=O)c1cc(N2CCNC2=O)c2cc(Cc3ccc(F)cc3)cnc2c1O
95 | 39 to 40 | O=C(c1ccccc1)c1ccc(Cl)nc1
96 | 255 to 258 | CC(=O)Nc1ccc2oc(-c3ccc(OCc4ccccc4)cc3)c(O)c(=O)c2c1
97 | 83 | O=C(c1ccc(F)cc1)C1CCN(CCCn2c(=O)sc3ccccc32)CC1
98 | 112 to 116 | COc1ccc(N2CCN(c3c(C)c(C)c4c(c3C)C(N3CCN(Cc5ccccc5)CC3)C(C)(C)O4)CC2)cc1 (centres undefined)
99 | 248 to 250 | CCn1c(-c2cccnc2)nc(-c2ccncc2)c1-c1ccc(Cl)cc1
